{"source": "ChEMBL document CHEMBL1148864", "about": "“Design of LFA-1 antagonists based on a 2,3-dihydro-1H-pyrrolizin-5(7aH)-one scaffold” (Bioorg Med Chem Lett, 2007)", "key": {"Homo sapiens [1]": {"species": "Homo sapiens", "settings": "1 uM"}, "Homo sapiens [2]": {"species": "Homo sapiens", "settings": "10 uM"}}, "data": [{"smiles": "N#Cc1ccc(C[C@@]23CCCN2C(=O)C(c2cc(Cl)cc(Cl)c2)=C3O)cc1", "values": [{"measurement": "inhibition", "setting": "Homo sapiens [1]", "result": 27, "unit": "%"}]}, {"smiles": "O=C1C(c2cc(Cl)cc(Cl)c2)=C(c2cc[nH]n2)[C@]2(Cc3ccc(Br)cc3)CCCN12", "values": [{"measurement": "inhibition", "setting": "Homo sapiens [2]", "result": 30, "unit": "%"}]}]}
